Consider 2 compounds from patent US20090181369A1, “Methods for the Treatment of Disease” (priority 2005, published 2009).

What is called IC50 is the concentration needed to halve the response being measured.

The structures appear in SMILES notation.

For data set [1], the system named is BaF3 cells expressing wild-type FNTB. Description: cells. As to conditions: Mus musculus, BaF3, 336 h, read-out: Cellular IC50.
For data set [2], the system named is BaF3 cells expressing FNTB C95R. Description: soft agar colony assay (cellular IC50). The following applies: Mus musculus, BaF3, 336 h, read-out: Cellular IC50.
The conditions of data set [3]: patients, reported (ref. 8); cited from earlier work.
For data set [4], the system named is BaF3 cells expressing FNTB G241E. In words: cells. The following applies: Mus musculus, BaF3, 336 h, read-out: Cellular IC50.
For data set [5], the system named is BaF3 cells expressing FNTB W106R. Description: soft agar colony assay (cellular IC50). As to conditions: Mus musculus, BaF3, 336 h, read-out: Cellular IC50.
Data set [6] deals with FTase, β subunit W106R (Homo sapiens, UniProt P49356, W106R). As to conditions: all drug concentrations.
Data set [7] deals with BaF3 cells expressing FNTB P152S. Description: cells. As to conditions: Mus musculus, BaF3, 336 h, read-out: Cellular IC50.
The subject of data set [8] is chronic myeloid leukemia (CML). As to conditions: chronic phase CML patients; cited from earlier work.

On to `NC(=O)N1CCC(CC(=O)N2CCC([C@H]3c4ncc(Br)cc4CCc4cc(Cl)cc(Br)c43)CC2)CC1` [Lonafarnib, (+)-4-[2-[4-(8-Chloro-3,10-dibromo-6,11-dihydro-5H-benzo[5,6]cyclohepta[1,2-b]-pyridin-11(R)-yl)-1-piperidinyl]-2-oxo-ethyl]-1-piperidinecarboxamide], for which the IC50 was 0.09 µM in data set [1]; 1.8 µM in data set [2]; 0.6 µM in data set [4]; over 10 µM in data set [5]; 0.3 µM in data set [7]. Also, the trough plasma concentrations in data set [3] is 1.5 µM. For the same compound, in data set [6], the “HDJ2 farnesylation by western blot” value was found to be 100%.
On to `Cc1ccc(NC(=O)c2ccc(CN3CCN(C)CC3)cc2)cc1Nc1nccc(-c2cccnc2)n1` [imatinib], for which, in data set [8], the response rate result was “over 90%”.
